Article PMC4109680, “Identification and Preclinical Pharmacology of the γ-Secretase Modulator BMS-869780” (International Journal of Alzheimer's Disease, 2014)

Tested on: Aβ1-42 (MEF PS1wt)
Assay: Aβ1-42 ELISA in MEF dKO cultures cotransfected with APP-CTF and human presenilin-1 wild type
Assay type: cell-based
Conditions: wild type human presenilin-1
Protocol: H4-APPsw cell cultures were maintained on Dulbecco's modified Eagle's medium (DMEM) supplemented with L-glutamine (2 mM), fetal bovine serum (10%), and G418 (100 μg/mL). […] Aβ1-42 and Aβ1-40 assays, and Notch inhibition assays, were carried out as described previously. Mouse embryonic fibroblasts deficient in PS1 and PS2 (MEF dKO) were passaged twice per week in DMEM/F-12 medium, consisting of a 1 : 1 mixture of DMEM and F-12 nutrient mixture supplemented with 10% fetal bovine serum, penicillin, and streptomycin. For expression of human presenilin-1 in MEF dKO cells, the full length human presenilin-1 cDNA open reading frame was cloned between the BamHI and XhoI sites of the vector pcDNA5/FRT (Invitrogen), placing presenilin-1 expression under the control of the CMV promoter. […]
IC50 determinations for Aβ1-42 and Aβ1-40 in H4-APPsw cultures in 384-well format were determined using homogeneous time-resolved fluorescence immunoassays as previously described. […] In other experiments using H4-APPsw cultures, Aβ was quantified by ELISA; for Aβ1-42 the combination of monoclonal antibodies was 26D6 and 565-HRP; for Aβ1-40 it was TSD and 26D6-HRP, and for Aβ1-x it was 4G8 and 26D6-HRP. […] For Aβ in transiently transfected PS1/PS2 dKO fibroblasts, Aβ1-42 was quantified using an ELISA kit (WACO), and Aβ1-40 was quantified by ELISA as described above for H4-APPsw cultures. […]

COc1cc(Nc2nc3n(n2)CCCC[C@H]3c2ccc(F)cc2)ccc1-n1cnc(Cl)c1 [BMS-869780]
IC50: 7.7 nM
